The record followed here is patent publication US20240252488A1 (KOREA RESEARCH INSTITUTE OF CHEMICAL TECHNOLOGY, priority 2020, published 2024).

Test [1] relates to FADD−/− Jurkat cells. As to the kind of experiment: Necroptosis inhibition assay, TNF-α-induced necroptosis (CellTiter-Glo 2.0). It counts as cell-based, human. The settings on record: TNF-α 15 ng/mL; for Necroptosis inhibition assay (Rescue %) 1 μM: compound 1 μM; for Necroptosis inhibition assay (Rescue %) 10 μM: compound 10 μM. The gist of the method:
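Tested at three fixed concentrations (0.1, 1, 10 μM final) with a 30-minute room-temperature preincubation ahead of 15 ng/mL TNF-α challenge lasting 20 to 24 hours. Inhibition rate and cytotoxicity derive from ATP luminescence.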
(ATP-based viability assays read luminescence as a measure of living cells.)

In test [2] the target is T1, MLKL (Homo sapiens, UniProt Q8NB16).
T1 sequence (Q8NB16 1-471): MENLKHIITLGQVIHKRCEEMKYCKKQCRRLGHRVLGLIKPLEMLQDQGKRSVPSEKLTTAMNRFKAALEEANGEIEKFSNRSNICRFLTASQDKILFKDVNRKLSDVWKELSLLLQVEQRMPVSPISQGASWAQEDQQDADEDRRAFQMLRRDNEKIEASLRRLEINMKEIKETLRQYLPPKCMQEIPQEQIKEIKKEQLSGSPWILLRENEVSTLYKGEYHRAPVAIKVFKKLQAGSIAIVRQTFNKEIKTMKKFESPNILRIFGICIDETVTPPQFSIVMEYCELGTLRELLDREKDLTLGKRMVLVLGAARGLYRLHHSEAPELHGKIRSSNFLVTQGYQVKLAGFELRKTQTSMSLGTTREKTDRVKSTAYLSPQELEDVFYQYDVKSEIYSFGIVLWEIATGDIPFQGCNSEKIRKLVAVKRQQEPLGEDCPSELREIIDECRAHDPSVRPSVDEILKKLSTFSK
As to the kind of experiment: MLKL degradation assay in HepG2 cell line (western blot). Further details: endogenous in cells; host or cells: HepG2 or HaCaT. The settings on record: cell line not given; for Degradation assay (Degradation %) 1 μM: compound 1 μM; for Degradation assay (Degradation %) 10 μM: compound 10 μM. It counts as cell-based. An outline of the steps: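 Degradation is judged from MLKL band intensity on immunoblots of HepG2 lysates taken after 20-24 hours of compound at final 1 or 10 μM.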
(In western blotting, separated proteins are transferred to a membrane and probed.)

Test [3] concerns the target T1, MLKL. As to the kind of experiment: Measurement of binding affinity with MLKL receptor (competitive binding assay, Kd). Further details: made in house; host or cells: HEK 293 cell line (T7 phage in E. coli BL21-derived host is also described). The gist of the method:
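qPCR of MLKL eluted from liganded beads served as the read-out, from which Kd was derived. The protein was made in HEK 293 cells with a DNA tag, and test compounds competed with the bead-bound ligand at 0.9% final DMSO.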

Regarding `Nc1ncc(-c2cnn(C3CCN(CCOC4CCN(C(=O)CC5CCN(c6ccc7c(c6)C(=O)N(C6CCC(=O)NC6=O)C7=O)CC5)CC4)CC3)c2)nc1C(=O)O[C@@H](C(=O)Nc1ccc(F)cc1)c1ccccc1` (stereo partly drawn) [TDH-372, (R)-2-((4-fluorophenyl)amino)-2-oxo-1-phenylethyl 3-amino-6-(1-(1-(2-((1-(2-(1-(2-(2,6-dioxopiperidin-3-yl)-1,3-dioxoisoindolin-5-yl)piperidin-4-yl)acetyl)piperidin-4-yl)oxy)ethyl)piperidin-4-yl)-1H-pyrazol-4-yl)pyrazine-2-carboxylate], in test [1], the “Necroptosis inhibition assay (Rescue %) 1 μM” value is 26.36% and the “Necroptosis inhibition assay (Rescue %) 10 μM” value is on record as 28.54%. Besides, in test [2], the “Degradation assay (Degradation %) 1 μM” value stood at 78.14% and the “Degradation assay (Degradation %) 10 μM” value is 81.79%. Further, the Kd (in general, a measure of binding affinity in units of concentration) in test [3] was determined as 12 nM.
As to `Nc1ncc(-c2cnn(C3CCN(CC4CN(c5ccc6c(c5)C(=O)N(C5CCC(=O)NC5=O)C6=O)CCO4)CC3)c2)nc1C(=O)OC(C(=O)Nc1ccc(F)cc1)c1ccccc1` (centres unmarked) [TDH-311, 2-((4-fluorophenyl)amino)-2-oxo-1-phenylethyl 3-amino-6-(1-(1-((4-(2-(2,6-dioxopiperidin-3-yl)-1,3-dioxoisoindolin-5-yl)morpholin-2-yl)methyl)piperidin-4-yl)-1H-pyrazol-4-yl)pyrazine-2-carboxylate], in test [1], the “Necroptosis inhibition assay (Rescue %) 1 μM” value was 57.09% and the “Necroptosis inhibition assay (Rescue %) 10 μM” value worked out at 39.01%. Besides, in test [2], the “Degradation assay (Degradation %) 1 μM” value was 69.38% and the “Degradation assay (Degradation %) 10 μM” value turned out to be 52.38%. In addition, the Kd in test [3] came out at 5.3 nM.
`Nc1ncc(-c2cnn(C3CCN(CC4CCN(C(=O)C5CN(c6ccc7nnn(C8CCC(=O)NC8=O)c(=O)c7c6)C5)CC4)CC3)c2)nc1C(=O)O[C@@H](C(=O)Nc1ccc(F)cc1)c1ccccc1` (stereo partly drawn) [TDH-170, (R)-2-((4-fluorophenyl)amino)-2-oxo-1-phenylethyl 3-amino-6-(1-(1-((1-(1-(3-(2,6-dioxopiperidin-3-yl)-4-oxo-3,4-dihydrobenzo[d][1,2,3]triazin-6-yl)azetidine-3-carbonyl)piperidin-4-yl)methyl)piperidin-4-yl)-1H-pyrazol-4-yl)pyrazine-2-carboxylate]: in test [1], the “Necroptosis inhibition assay (Rescue %) 1 μM” value turned out to be 44.08% and the “Necroptosis inhibition assay (Rescue %) 10 μM” value was 23.26%. Moreover, in test [2], the “Degradation assay (Degradation %) 1 μM” value amounted to 60.57% and the “Degradation assay (Degradation %) 10 μM” value was determined as 58.27%. In test [3], the dissociation constant Kd turned out to be 4.6 nM.
Turning to `Nc1ncc(-c2cnn(C3CCN(C(=O)CC4CCN(C(=O)CNc5cccc6nnn(C7CCC(=O)NC7=O)c(=O)c56)CC4)CC3)c2)nc1C(=O)O[C@@H](C(=O)Nc1ccc(F)cc1)c1ccccc1` (stereo partly drawn) [TDH-411, (R)-2-((4-fluorophenyl)amino)-2-oxo-1-phenylethyl 3-amino-6-(1-(1-(2-(1-((3-(2,6-dioxopiperidin-3-yl)-4-oxo-3,4-dihydrobenzo[d][1,2,3]triazin-5-yl)glycyl)piperidin-4-yl)acetyl)piperidin-4-yl)-1H-pyrazol-4-yl)pyrazine-2-carboxylate], in test [1] (FADD−/− Jurkat cells), the “Necroptosis inhibition assay (Rescue %) 1 μM” value is recorded as 9.91% and the “Necroptosis inhibition assay (Rescue %) 10 μM” value is 10.81%. In test [2], the “Degradation assay (Degradation %) 1 μM” value was 53.86% and the “Degradation assay (Degradation %) 10 μM” value amounted to 44.78%. In test [3], this molecule returned a Kd of 5.7 nM.
In the case of `COc1ccc(C(=O)NCC2CCC(CN3CCC(n4cc(-c5cnc(N)c(C(=O)O[C@@H](C(=O)Nc6ccc(F)cc6)c6ccccc6)n5)cn4)CC3)CC2)cc1N1CCC(=O)NC1=O` (stereo partly drawn) [TDH-497, (R)-2-((4-fluorophenyl)amino)-2-oxo-1-phenylethyl 3-amino-6-(1-(1-(((1r,4r)-4-((3-(2,4-dioxotetrahydropyrimidin-1(2H)-yl)-4-methoxybenzamido)methyl)cyclohexyl)methyl)piperidin-4-yl)-1H-pyrazol-4-yl)pyrazine-2-carboxylate], in test [1] (FADD−/− Jurkat cells), the “Necroptosis inhibition assay (Rescue %) 1 μM” value was 13.48% and the “Necroptosis inhibition assay (Rescue %) 10 μM” value was −1.14%. Further, in test [2], the “Degradation assay (Degradation %) 1 μM” value was 73.89% and the “Degradation assay (Degradation %) 10 μM” value is 57.10%. The molecule further registered a Kd in test [3] of 0.61 nM.
For the molecule `Nc1ncc(-c2cnn(C3CCN(CCCN4CCN(C(=O)COc5ccc6c(c5)C(=O)N(C5CCC(=O)NC5=O)C6=O)CC4)CC3)c2)nc1C(=O)O[C@@H](C(=O)Nc1ccc(F)cc1)c1ccccc1` (stereo partly drawn) [TDH-358, (R)-2-((4-fluorophenyl)amino)-2-oxo-1-phenylethyl 3-amino-6-(1-(1-(3-(4-(2-((2-(2,6-dioxopiperidin-3-yl)-1,3-dioxoisoindolin-5-yl)oxy)acetyl)piperazin-1-yl)propyl)piperidin-4-yl)-1H-pyrazol-4-yl)pyrazine-2-carboxylate], in test [1] (compound 1.1 µM), the “Necroptosis inhibition assay (Rescue %) 1.1 μM” value is given as 100.10 (1.1 µM) %. In test [1], the “Necroptosis inhibition assay (Rescue %) 10 μM” value is recorded as 39.65%. In test [2], the “Degradation assay (Degradation %) 1 μM” value turned out to be 91.6% and the “Degradation assay (Degradation %) 10 μM” value was determined as 86.73%. Moreover, the affinity in test [3], expressed as Kd, was 0.5 nM.
As to `Nc1ncc(-c2cnn(C3CCN(CCOC4CCN(C(=O)C5CCN(c6cccc7c6C(=O)N(C6CCC(=O)NC6=O)C7=O)CC5)CC4)CC3)c2)nc1C(=O)OC(C(=O)Nc1ccc(F)cc1)c1ccccc1` (centres unmarked) [TDH-247, 2-((4-fluorophenyl)amino)-2-oxo-1-phenylethyl 3-amino-6-(1-(1-(2-((1-(1-(2-(2,6-dioxopiperidin-3-yl)-1,3-dioxoisoindolin-4-yl)piperidine-4-carbonyl)piperidin-4-yl)oxy)ethyl)piperidin-4-yl)-1H-pyrazol-4-yl)pyrazine-2-carboxylate], in test [1], the “Necroptosis inhibition assay (Rescue %) 1 μM” value was 40.99% and the “Necroptosis inhibition assay (Rescue %) 10 μM” value is listed as 33.69%. Besides, in test [2], the “Degradation assay (Degradation %) 1 μM” value stood at 64.32% and the “Degradation assay (Degradation %) 10 μM” value is given as 45.04%. The molecule also came in with a Kd in test [3] of 4.6 nM.
For the molecule `Nc1ncc(-c2cnn(C3CCN(C(=O)CCC4CCN(C(=O)CNc5ccc6nnn(C7CCC(=O)NC7=O)c(=O)c6c5)CC4)CC3)c2)nc1C(=O)O[C@@H](C(=O)Nc1ccc(F)cc1)c1ccccc1` (stereo partly drawn) [TDH-434, (R)-2-((4-fluorophenyl)amino)-2-oxo-1-phenylethyl 3-amino-6-(1-(1-(3-(1-((3-(2,6-dioxopiperidin-3-yl)-4-oxo-3,4-dihydrobenzo[d][1,2,3]triazin-6-yl)glycyl)piperidin-4-yl)propanoyl)piperidin-4-yl)-1H-pyrazol-4-yl)pyrazine-2-carboxylate], in test [1] (FADD−/− Jurkat cells), the “Necroptosis inhibition assay (Rescue %) 1 μM” value was found to be 28.72% and the “Necroptosis inhibition assay (Rescue %) 10 μM” value is listed as 20.87%. Moreover, in test [2], the “Degradation assay (Degradation %) 1 μM” value came to 85.08% and the “Degradation assay (Degradation %) 10 μM” value came to 74.66%. The affinity in test [3], expressed as Kd, was 1.4 nM.
On the same counts, the results for `Nc1ncc(-c2cnn(C3CCN(C(=O)C4CCN(C(=O)C5CCN(c6ccc7nnn(C8CCC(=O)NC8=O)c(=O)c7c6)CC5)CC4)CC3)c2)nc1C(=O)O[C@@H](C(=O)Nc1ccc(F)cc1)c1ccccc1` (stereo partly drawn) [TDH-410, (R)-2-((4-fluorophenyl)amino)-2-oxo-1-phenylethyl 3-amino-6-(1-(1-(1-(1-(3-(2,6-dioxopiperidin-3-yl)-4-oxo-3,4-dihydrobenzo[d][1,2,3]triazin-6-yl)piperidine-4-carbonyl)piperidine-4-carbonyl)piperidin-4-yl)-1H-pyrazol-4-yl)pyrazine-2-carboxylate] are 48.51%, 27.36%, 85.29%, 65.91% and 1.1 nM.
With `Nc1ncc(-c2cnn(C3CCN(C(=O)C4CCN(C(=O)C5CCN(c6cccc7c6C(=O)N(C6CCC(=O)NC6=O)C7=O)CC5)CC4)CC3)c2)nc1C(=O)OC(C(=O)Nc1ccc(F)cc1)c1ccccc1` (centres unmarked) [TDH-273, 2-((4-fluorophenyl)amino)-2-oxo-1-phenylethyl 3-amino-6-(1-(1-(1-(1-(2-(2,6-dioxopiperidin-3-yl)-1,3-dioxoisoindolin-4-yl)piperidine-4-carbonyl)piperidine-4-carbonyl)piperidin-4-yl)-1H-pyrazol-4-yl)pyrazine-2-carboxylate], in test [1], the “Necroptosis inhibition assay (Rescue %) 1 μM” value worked out at 54.02% and the “Necroptosis inhibition assay (Rescue %) 10 μM” value worked out at 34.08%. Moreover, in test [2], the “Degradation assay (Degradation %) 1 μM” value was found to be 77.5% and the “Degradation assay (Degradation %) 10 μM” value came to 61.88%. For the same molecule, binding in test [3] was characterised by a dissociation constant (Kd) of 3.5 nM.
